# Source: ChEMBL document CHEMBL6134780, “Halogenated retinoid derivatives as dual RARα and RXRα modulators for treating acute promyelocytic leukemia cells” (Eur J Med Chem, 2024)
# Active and inactive are the calls of the source. No cut-off for these calls is given here.
# Tests used:
# [1] = molecular target: T1, Retinoic acid receptor alpha (Homo sapiens) (UniProt P10276); assay: Agonist activity at full length RARalpha LBD (unknown origin) transfected in HEK293T cells co-transfected with pG5luc reporter and Renilla-luc at 1 uM incubated for 12 hrs by luciferase reporter gene assay; type: cell-based; details: filed as agonist
# T1 sequence (whole entry): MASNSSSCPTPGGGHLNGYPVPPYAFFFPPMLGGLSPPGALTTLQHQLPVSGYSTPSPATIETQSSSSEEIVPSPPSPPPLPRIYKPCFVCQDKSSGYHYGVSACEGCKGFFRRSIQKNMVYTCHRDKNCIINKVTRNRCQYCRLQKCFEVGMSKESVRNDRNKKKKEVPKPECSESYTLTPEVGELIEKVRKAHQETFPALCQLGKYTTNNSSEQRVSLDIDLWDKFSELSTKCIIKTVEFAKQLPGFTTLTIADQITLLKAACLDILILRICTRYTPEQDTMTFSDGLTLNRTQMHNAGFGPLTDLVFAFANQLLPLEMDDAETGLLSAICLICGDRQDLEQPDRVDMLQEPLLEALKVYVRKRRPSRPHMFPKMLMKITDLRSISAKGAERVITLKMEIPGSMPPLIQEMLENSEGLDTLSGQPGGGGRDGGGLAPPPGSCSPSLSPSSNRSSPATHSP
# [2] = molecular target: T2, Retinoic acid receptor gamma (Homo sapiens) (UniProt P13631); assay: Agonist activity at full length RARgamma LBD (unknown origin) transfected in HEK293T cells co-transfected with pG5luc reporter and Renilla-luc at 1 uM incubated for 12 hrs by luciferase reporter gene assay; type: cell-based; details: filed as agonist
# T2 sequence (whole entry): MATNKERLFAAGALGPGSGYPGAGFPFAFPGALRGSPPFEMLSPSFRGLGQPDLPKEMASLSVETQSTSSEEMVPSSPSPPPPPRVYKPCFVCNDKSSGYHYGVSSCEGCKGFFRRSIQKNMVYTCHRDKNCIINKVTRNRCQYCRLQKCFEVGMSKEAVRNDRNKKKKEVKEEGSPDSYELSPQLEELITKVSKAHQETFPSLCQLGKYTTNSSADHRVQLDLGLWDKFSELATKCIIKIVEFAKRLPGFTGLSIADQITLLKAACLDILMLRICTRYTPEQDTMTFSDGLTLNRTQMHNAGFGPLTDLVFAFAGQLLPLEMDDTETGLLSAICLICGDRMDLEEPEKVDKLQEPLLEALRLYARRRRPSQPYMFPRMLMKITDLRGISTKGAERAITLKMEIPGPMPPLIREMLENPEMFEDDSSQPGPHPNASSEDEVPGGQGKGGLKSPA
# [3] = molecular target: T3, Retinoic acid receptor beta (Homo sapiens) (UniProt P10826); assay: Agonist activity at full length RARbeta LBD (unknown origin) transfected in HEK293T cells co-transfected with pG5luc reporter and Renilla-luc at 1 uM incubated for 12 hrs by luciferase reporter gene assay; type: cell-based; details: filed as agonist
# T3 sequence (whole entry): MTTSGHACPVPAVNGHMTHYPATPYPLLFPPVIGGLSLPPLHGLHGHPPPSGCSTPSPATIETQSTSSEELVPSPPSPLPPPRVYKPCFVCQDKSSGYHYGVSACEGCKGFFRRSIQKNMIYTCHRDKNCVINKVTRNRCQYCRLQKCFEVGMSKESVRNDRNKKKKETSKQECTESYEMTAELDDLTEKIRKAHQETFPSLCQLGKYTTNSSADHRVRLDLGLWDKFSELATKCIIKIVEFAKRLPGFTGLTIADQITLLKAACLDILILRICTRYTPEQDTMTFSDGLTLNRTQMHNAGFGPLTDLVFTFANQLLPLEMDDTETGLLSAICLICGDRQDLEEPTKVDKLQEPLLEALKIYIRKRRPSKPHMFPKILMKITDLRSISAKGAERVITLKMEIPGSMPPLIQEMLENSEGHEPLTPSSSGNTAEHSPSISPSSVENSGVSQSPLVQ
# [4] = molecular target: T1, Retinoic acid receptor alpha (Homo sapiens); assay: Agonist activity at full length RARalpha LBD (unknown origin) transfected in HEK293T cells co-transfected with pG5luc reporter and Renilla-luc assessed as transactivation at 0.5 to 1 uM incubated for 12 hrs by luciferase reporter gene assay; type: cell-based; details: filed as agonist, dose 0.5-1 µM
# HEK293T = assay: Agonist activity at full length RARalpha LBD R276E mutant (unknown origin) transfected in HEK293T cells co-transfected with pG5luc reporter and Renilla-luc at 1 uM incubated for 12 hrs by luciferase reporter gene assay; type: cell-based; details: Homo sapiens, filed as agonist
# NB-4 = assay: Antiproliferative activity against human NB4 cells assessed as inhibition of cell viability at 0.125 uM incubated for 3 days by CCK8 assay relative to control; type: functional; details: NB-4, 72 h, time 3 day
# ATRA-resistant NB4-LR2 = assay: Antiproliferative activity against human ATRA-resistant NB4-LR2 cells assessed as effect on cell viability up to 2 uM incubated for 3 days by CCK8 assay; type: functional, cell-based; details: time 3.0 day
# [5] = molecular target: T4, Retinoic acid receptor gamma (Homo sapiens, UniProt P13631); assay: Agonist activity at Gal4-fused full length human RARgamma LBD transfected in HEK293T cells co-transfected with pG5luc reporter and Renilla-luc assessed as transactivation incubated for 12 hrs by dual luciferase reporter gene assay; type: cell-based; details: hek293t
# T4 sequence (P13631 whole entry): T2 sequence (whole entry)
smiles,measurement,setting,value
Cc1cc2c(cc1C(=O)/C=C/c1ccc(C(=O)O)cc1)C(C)(C)CCC2(C)C,Activity,[1],Active
same,Activity,[2],Active; Poor Subtype Selectivity Observed
same,Activity,[3],Active; Poor Subtype Selectivity Observed
Cc1cc2c(cc1C(=O)/C(I)=C\c1ccc(C(=O)O)cc1)C(C)(C)CCC2(C)C,Activity,[4],Active
CC1(C)CCC(C)(C)c2cc(C(=O)Nc3ccc(C(=O)O)cc3)ccc21,Activity,HEK293T,Active; Partial Impairment Observed
same,inhibition at 0.125 µM,NB-4,~40%
same,Activity,ATRA-resistant NB4-LR2,inactive
same,EC50,[5],Not_determined(Unstable)
